In patent publication US20230321186A1, “Mucin Glycans as Antifungal Agents” (Massachusetts Institute of Technology, priority 2022, published 2023):

Legend:
Type in all cases: cell-based, Candida albicans
C. albicans [1] = experiment: Filamentation assay (hyphal growth, phase-contrast images); conditions: 0.4%, RPMI, 37° C., 8 h, vs monosaccharide pool and medium alone
Method: Hyphal growth of C. albicans was induced by diluting cells to OD600=0.05 into prewarmed hyphae-inducing medium as indicated and incubating at 37° C. (200 rpm) in a glass-bottom, 96-well plate. Cells were grown in hyphae-inducing medium for several hours, as described in BRIEF DESCRIPTION OF THE DRAWINGS. Images were acquired with a confocal laser scanning microscope (Zeiss, Oberkochen, Germany; LSM 800) equipped with a ×63/1.4 NA oil-immersion or a 25× objective. Images were analyzed using Zeiss ZEN v.2.1. Representative micrographs are shown.

C. albicans SC5314 [2] = experiment: RT-qPCR analysis of C. albicans gene expression; conditions: for suppression of filamentation-associated genes: broader range of genes, six synthetic glycans, FIG. 9E; for effect of the added sugar on the gene regulatory activity (YWP1, ECE1) of the unmodified Core: compared with Core 1 or Core 2; for ECE1 transcription / YWP1 transcription: modified Core structures, FIGS. 9C-9D; for YWP1 expression: 0.1% (w/v) synthetic glycan
Method: For RNA extraction from C. albicans grown in the presence or absence of mucin glycans, 100 μL of RPMI or 0.1% w/v MUC5AC glycans in RPMI were inoculated with a 1:50 dilution of an overnight culture of strain SC5314 and incubated at 37° C. for the time indicated. Total RNA was extracted with the MasterPure RNA Purification Kit (Lucigen, Middleton, WI) and residual DNA was removed using the Turbo DNA-free kit (Ambion, Austin, TX). The integrity of the total RNA was assessed using an Agilent 2100 Bioanalyzer (Agilent Technologies, Santa Clara, CA). rRNA was removed using the Ribo-Zero® rRNA Removal Kit (Yeast; Epicentre).
A list of the primers used in this study is provided in Table 1. qPCR with reverse transcription (RT-qPCR) was performed using a two-step method. First-strand cDNA was synthesized from total RNA using the […] First Strand cDNA Synthesis kit (New England Biolabs, Ipswich, MA). The cDNA was used as template for RT-qPCR using a SYBR PowerUp Master Mix kit (Applied Biosystems, Life Technologies) on a Roche LightCycler 480 real-time PCR system. The ACT1 and 18S rRNA genes were used as endogenous controls as specified. […] Changes in gene expression were calculated based on mean change in qPCR cycle threshold (ΔCt) using the ΔΔCt method (fold change=[…]).

C. albicans [3] = experiment: C. albicans growth (growth curves); conditions: 0.1% (w/v)
Method: Strains were maintained on yeast extract peptone dextrose (YPD) agar (2% Bacto peptone, 2% glucose, 1% yeast extract, 2% agar) and grown at 30° C. Single colonies were inoculated into YPD broth and grown with shaking overnight at 30° C. prior to each experiment. Experiments were performed with Gibco RPMI 1640 medium (Life Technologies, Carlsbad, CA; #31800-089) buffered with 165 mM 3-(N-morpholino)propanesulfonic acid (MOPS) and supplemented with 0.2% NaHCO3 and 2% glucose; YPD medium with 10% fetal bovine serum; GlcNAc medium (0.5% N-acetylglucosamine, 0.5% peptone, 0.3% KH2PO4); Spider medium (1% nutrient broth, 1% D-mannitol, 2 g K2HPO4, 50 mg/mL arginine, 10 mg/mL histidine, and 50 mg/mL tryptophan); or Lee's medium^45. Growth curves were performed in Synthetic Defined (SD)+0.004% (w/v) L-Arginine+0.0025% (w/v) L-Leucine media with 2% glucose.

C. albicans SC5314 [4] = experiment: RT-qPCR analysis of C. albicans gene expression; conditions: for ECE1 expression: 0.1% and 0.4%; for YWP1 expression on concentration increase: increase to 0.4% (w/v)

With `CO[C@H]1O[C@H](CO)[C@H](O)[C@H](O[C@@H]2O[C@H](CO)[C@H](O)[C@H](O[C@]3(C(=O)[O-])C[C@H](O)[C@@H](NC(C)=O)[C@H]([C@H](O)[C@H](O)CO)O3)[C@H]2O)[C@H]1NC(C)=O.[Na+]` [Core 1+sialic acid, Methyl 3-O-(sodium 5-acetamido-3,5-dideoxy-D-glycero-α-D-galacto-2-nonulopyranosylonate)-β-D-galactopyranosyl-(1→3)-2-acetamido-2-deoxy-α-D-galactopyranoside] the “filamentation, synthetic glycan structures” value (C. albicans [1]) was “less effective at suppressing filamentation”, the “suppression of filamentation-associated genes” value (shortened to “suppression”) (C. albicans SC5314 [2]) was “weakest effect” and the “effect of the added sugar on the gene regulatory activity (YWP1, ECE1) of the unmodified Core” value (from here on “effect of the added sugar”) (C. albicans SC5314 [2]) was “dampened the gene regulatory response of Core 1”. For the same molecule, the ECE1 transcription (C. albicans SC5314 [2]) was “downregulating ECE1” and the YWP1 transcription (C. albicans SC5314 [2]) was “transcriptionally upregulated YWP1”.

`CO[C@H]1O[C@H](CO[C@@H]2O[C@H](CO)[C@@H](O)[C@H](O)[C@H]2NC(C)=O)[C@H](O)[C@H](O[C@@H]2O[C@H](CO)[C@H](O)[C@H](O)[C@H]2O[C@@H]2O[C@@H](C)[C@@H](O)[C@@H](O)[C@@H]2O)[C@H]1NC(C)=O` [Core 2+fucose, Methyl α-L-fucopyranosyl-(1→2)-β-D-galactopyranosyl-(1→3)-[2-acetamido-2-deoxy-β-D-glucopyranosyl-(1→6)]-2-acetamido-2-deoxy-α-D-galactopyranoside] was tested, and the “effect of the added sugar” value (C. albicans SC5314 [2]) was “did not measurably alter”, the ECE1 transcription (C. albicans SC5314 [2]) was “downregulating ECE1” and the YWP1 transcription (C. albicans SC5314 [2]) was “transcriptionally upregulated YWP1”.

With `CO[C@H]1O[C@H](CO[C@@H]2O[C@H](CO)[C@@H](O)[C@H](O)[C@H]2NC(C)=O)[C@H](O)[C@H](O[C@@H]2O[C@H](CO)[C@H](O)[C@H](O)[C@H]2O)[C@H]1NC(C)=O` [Core 2, Methyl β-D-galactopyranosyl-(1→3)-[2-acetamido-2-deoxy-β-D-glucopyranosyl-(1→6)]-2-acetamido-2-deoxy-α-D-galactopyranoside] the YWP1 expression (C. albicans SC5314 [2]) was “upregulated YWP1 expression at 0.1% (w/v) to a similar degree as the intact mucin pool”, the “toxic effects, as measured by C. albicans growth” value (C. albicans [3]) was “Neither Core 1 nor Core 2 showed toxic effects” and the ECE1 expression (C. albicans SC5314 [4]) was “suppressed ECE1 expression at 0.1% and 0.4%, albeit less strongly than the mucin glycan pool”. For the same molecule, the “YWP1 expression on concentration increase” value (C. albicans SC5314 [4]) was “did not significantly alter YWP1 expression”.

For `CO[C@H]1O[C@H](CO)[C@H](O)[C@H](O[C@@H]2O[C@H](CO)[C@H](O)[C@H](O)[C@H]2O)[C@H]1NC(C)=O` [Core 1, Methyl β-D-galactopyranosyl-(1→3)-2-acetamido-2-deoxy-α-D-galactopyranoside], the “filamentation, synthetic glycan structures” value (C. albicans [1]) was “most potently blocked filamentation”, the YWP1 expression (C. albicans SC5314 [2]) was “upregulated YWP1 expression at 0.1% (w/v) to a similar degree as the intact mucin pool” and the “suppression” value (C. albicans SC5314 [2]) was “strongest suppression”. For the same molecule, the “toxic effects, as measured by C. albicans growth” value (C. albicans [3]) was “Neither Core 1 nor Core 2 showed toxic effects”, the ECE1 expression (C. albicans SC5314 [4]) was “suppressed ECE1 expression at 0.1% and 0.4%, albeit less strongly than the mucin glycan pool” and the “YWP1 expression on concentration increase” value (C. albicans SC5314 [4]) was “did not significantly alter YWP1 expression”.

In the case of `CO[C@H]1O[C@H](CO)[C@H](O)[C@H](O[C@@H]2O[C@H](CO)[C@H](O)[C@H](O)[C@H]2O[C@@H]2O[C@@H](C)[C@@H](O)[C@@H](O)[C@@H]2O)[C@H]1NC(C)=O` [Core 1+fucose, Methyl α-L-fucopyranosyl-(1→2)-β-D-galactopyranosyl-(1→3)-2-acetamido-2-deoxy-α-D-galactopyranoside], the “filamentation, synthetic glycan structures” value (C. albicans [1]) is reported as “most potently blocked filamentation”, the “suppression” value (C. albicans SC5314 [2]) is reported as “strongest suppression” and the “effect of the added sugar” value (C. albicans SC5314 [2]) is reported as “did not measurably alter”. The ECE1 transcription (C. albicans SC5314 [2]) was “downregulating ECE1” and the YWP1 transcription (C. albicans SC5314 [2]) was “transcriptionally upregulated YWP1”.

In the case of `CO[C@H]1O[C@H](CO[C@@H]2O[C@H](CO)[C@@H](O[C@@H]3O[C@H](CO)[C@H](O)[C@H](O)[C@H]3O)[C@H](O)[C@H]2NC(C)=O)[C@H](O)[C@H](O[C@@H]2O[C@H](CO)[C@H](O)[C@H](O)[C@H]2O)[C@H]1NC(C)=O` [Core 2+galactose, Methyl β-D-galactopyranosyl-(1→4)-2-acetamido-2-deoxy-β-D-glucopyranosyl-(1→6)-[β-D-galactopyranosyl-(1→3)]-2-acetamido-2-deoxy-α-D-galactopyranoside], the “filamentation, synthetic glycan structures” value (C. albicans [1]) is reported as “most potently blocked filamentation”, the “suppression” value (C. albicans SC5314 [2]) is reported as “strongest suppression” and the “effect of the added sugar” value (C. albicans SC5314 [2]) is reported as “did not significantly alter Core 2 activity”. For the same molecule, the ECE1 transcription (C. albicans SC5314 [2]) was “downregulating ECE1” and the YWP1 transcription (C. albicans SC5314 [2]) was “transcriptionally upregulated YWP1”.
